Measurements: patent US20250368651A1 (priority 2022, published 2025)

What was measured:
[1] = biological target: DNA Seq13 (UGAAGAAAGGU as deoxyribonucleotides); assay: FP binding assay, DNA Seq13; conditions: Seq 13; 0.5 μM SMN-C2
Procedure: (§1) All synthetic DNA and RNA oligomers were purchased from Integrated DNA Technologies and reconstituted in nuclease-free water (Invitrogen #AM9932) at 1 mM. The concentration of the oligonucleotides at ˜0.1 mM was calibrated with the A260 value measured by a NanoDrop ND-1000 (Thermo, Waltham, MA, USA) and the predicted extinction coefficient (http://www.oligoevaluator.com) using Lamber-Beer's Law. The risdiplam analogues (1 mM in DMSO) were diluted in 2× assay buffer (40 mM HEPES, 200 mM NaCl for RNA; 40 mM HEPES, 200 mM NaCl, 1 mM MgCl2 for DNA) to make a 1 μM 2× working solution.
(§2) A 1:2 dilution series (8 points) of each oligonucleotide was prepared in 20-30 μL water to desired concentrations (i.e., 1-128 μM). […] For fluorescence polarization measurement, 20 μL of the above 1× working solution was transferred into a 384-well, black, F-bottom microplates (Greiner Bio-One) in duplicates or triplicates. The plate was equilibrated at room temperature for 5 min before being read using a microplate reader (SYNERGY H1, BioTek; Excitation/Emission=360/460 nm) at 25° C. […] The mixture was then transferred into a microplate (20 μL each well) in duplicates for fluorescence polarization readout. The experimental data were analyzed using Prism 8 software (Graphpad Software, San Diego, CA, USA).

[2] = biological target: RNA Seq18: 1:1 annealed U1 snRNA binding sequence 5′-AUACΨΨACCU and 5′ splice site 5′-GGAGGUAAGUCU; assay: FP binding assay, dsRNA Seq18 (binding site 1 sequence); conditions: Seq 18, binding site 1 sequence (dsRNA); 0.5 μM SMN-C2
Procedure: as §1, §2

DNA S17 […] = assay: FP binding assay, 18-nt DNA S17
Procedure: as §1, §2

[3] = test system: dsDNA formed by annealing Seq6 and its reverse complement, Seq6_RC; assay: ITC, dsDNA (annealed Seq6 and Seq6_RC); format: binding; conditions: dsDNA of Seq6 and Seq6_RC
Procedure: The figures are representation of three independent experiments.
Isothermal calorimetric titrations were carried out on a Malvern Analytical MicroCal PEAQ-ITC at 25° C. The DNA (see above for the calibration procedure) and the SMN-C2 water solutions containing the desired amount of the materials were freeze-dried overnight (Labconco FreeZone 4.5 Liter Benchtop Freeze Dry System) and then re-suspended in appropriate volume of buffer containing 5% DMSO, 100 mM NaCl and 30 mM MES buffer at pH 6.0 (e.g., 350 μL for DNA Seq6, 80 μL for SMN-C2). […] The analysis was performed using the instrument's MicroCal PEAQ-ITC Analysis Software (Malvern Analytical). The ITC data was fit using the One Set of Sites mode to calculate the dissociate constant (Kd), binding stoichiometry, and the changes in enthalpy and Gibbs free energy. In differential power (DP) trace, the baseline was subtracted for better visualization, which has no impact on calculations.

DNA Seq17 TGAAGGAAGAT = assay: FP binding assay, DNA Seq17; conditions: Seq 17 TGAAGGAAGAT; 0.5 μM SMN-C2
Procedure: as §1, §2

in vitro = conditions: human
DNA Seq11 TGGAGGAAGGT = assay: FP binding assay, DNA Seq11; conditions: Seq 11 TGGAGGAAGGT; 0.5 μM SMN-C2
Procedure: as §1, §2

DNA S11 […] = assay: FP binding assay, 18-nt DNA S11
Procedure: as §1, §2

DNA S19 […] = assay: FP binding assay, 18-nt DNA S19
Procedure: as §1, §2

DNA Seq16 TGAAGGAAAGT = assay: FP binding assay, DNA Seq16; conditions: Seq 16 TGAAGGAAAGT; 0.5 μM SMN-C2
Procedure: as §1, §2

DNA Seq9 TTAAGGAAGTT = assay: FP binding assay, DNA Seq9; conditions: Seq 9 TTAAGGAAGTT; 0.5 μM SMN-C2
Procedure: as §1, §2

DNA S4 […] = assay: FP binding assay, 18-nt DNA S4
Procedure: as §1, §2

[4] = biological target: DNA Seq7 (UUAAGGAAGGU as deoxyribonucleotides); assay: FP binding assay, DNA Seq7; conditions: Seq 7; 0.5 μM SMN-C2
Procedure: as §1, §2

DNA Seq2 d(GAAGGAAGG) = assay: FP binding assay, 9-nt DNA Seq2
Procedure: as §1, §2

With `CCN1CCN(c2ccc3cc(-c4cn5cc(C)nc(C)c5n4)c(=O)oc3c2)C[C@@H]1C` [SMN-C2, (S)-3-(6,8-dimethylimidazo[1,2-a]pyrazin-2-yl)-7-(4-ethyl-3-methylpiperazin-1-yl)-2H-chromen-2-one] the Kd [1] was > 100 µM, the Kd [2] was 60 ± 36 µM and the Kd (DNA S17 […]) was 16.5 ± 1.1 µM. For the same molecule, the “binding to dsDNA (ITC)” value [3] was “abrogated most of the binding affinity”, the Kd (DNA Seq17 TGAAGGAAGAT) was 56.4 ± 10.4 µM and the CC50 (in vitro) was > 30 µM. For the same molecule, the Kd (DNA Seq11 TGGAGGAAGGT) was 57.3 ± 20 µM, the Kd (DNA S11 […]) was 26.3 ± 1.2 µM and the Kd (DNA S19 […]) was 21 ± 1.1 µM. For the same molecule, the Kd (DNA Seq16 TGAAGGAAAGT) was 27.4 ± 6 µM, the Kd (DNA Seq9 TTAAGGAAGTT) was > 100 µM and the Kd (DNA S4 […]) was > 50 µM. The Kd [4] was > 100 µM and the Kd (DNA Seq2 d(GAAGGAAGG)) was 34.3 ± 9.6 µM.
